Assay results reported in PubChem BioAssay (NCI).
Several values for one entry are separate records, joined by “and”; a condition that tells them apart may be missing. Identical values can stand only once.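 Protocol summary: plate cells (96-well), add compound at 5 concentrations, incubate 48 h, interpolate endpoints linearly. GI50 is the concentration that inhibits growth by half. TGI: total growth inhibition.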

How the values were obtained:
Test in all cases: NCI-60 cell line screen, 48 h
[1] = system: OVCAR-3 ovarian
[2] = system: TK-10 renal
[3] = system: BT-549 breast
[4] = system: SK-MEL-2 melanoma
[5] = system: NCI-H460 lung
[6] = system: DU-145 prostate
[7] = system: OVCAR-4 ovarian
[8] = system: MCF7 breast
[9] = system: COLO 205 colon
[10] = system: T-47D breast

Row | Structure (SMILES) | GI50 [1] | TGI [1] | GI50 [2] | TGI [2] | GI50 [3] | TGI [3] | GI50 [4] | TGI [4] | GI50 [5] | TGI [5] | GI50 [6] | TGI [6] | GI50 [7] | TGI [7] | GI50 [8] | TGI [8] | GI50 [9] | TGI [9] | GI50 [10] | TGI [10]
1 | COc1ccc(Cn2cnc3cc(C(=O)Nc4cccc5ccccc45)ccc32)c(OC)c1 | 0.0267 µM | 0.0776 µM | 1.17 µM | > 100 µM | 0.0603 µM | 6.53 µM | 0.945 µM | > 100 µM | 0.0363 µM | 1.21 µM | 0.0439 µM | 3.36 µM | 0.122 µM | > 100 µM | 0.0357 µM | > 100 µM | 0.0462 µM | 0.724 µM | 0.0372 µM | > 100 µM
2 | c1ccc2c(-c3nc4ccccc4[nH]3)cccc2c1 | 2.17 µM | 6.89 µM | 8.15 µM | 55.7 µM | 3.3 µM | 80 µM | 2.15 µM | 8.68 µM | 3.17 µM | 15.8 µM | 3.04 µM | 9.29 µM | 10.9 µM | > 100 µM | 2.94 µM | 37.9 µM | 3.48 µM | 11.8 µM | 6.06 µM | > 100 µM
3 | O=C(CC/C(CC(=O)c1ccc(Cl)cc1)=N/O)Nc1ccc(Cl)c(Cl)c1 |  | > 100 µM |  | > 100 µM |  |  |  | > 100 µM |  | > 100 µM |  |  |  | > 100 µM |  |  |  | > 100 µM |  | 
4 | COc1cc(OC)c2cc(C(=O)O)c(=O)oc2c1 | > 100 µM | > 100 µM | > 74.5 µM | > 100 µM | > 100 µM | > 100 µM | > 35.6 µM | > 53.8 µM | > 100 µM | > 100 µM | > 100 µM | > 100 µM | > 100 µM | > 100 µM | > 100 µM | > 100 µM | > 100 µM | > 100 µM | > 100 µM | > 100 µM
5 | O=C(Nc1ccc(Cl)cc1)c1ccc([N+](=O)[O-])o1 | 2.92 µM | 9.4 µM | 2.4 µM | 5.32 µM | 1.9 µM | 4.06 µM | 2.76 µM | 6.53 µM | 2.22 µM | 5.55 µM | 3.95 µM | 11.4 µM | 2.11 µM | 8.31 µM | 1.52 µM | 4.19 µM | 1.75 µM | 3.18 µM | 4.42 µM | 23.2 µM
6 | Cc1ccc(-c2nc3c(C(=O)NCCN(C)C)cccc3[nH]2)cc1 |  | 86.7 µM |  | 48.9 µM |  |  |  | 32.8 µM |  | 21.1 µM |  |  |  | 85.3 µM |  |  |  | 20.4 µM |  | 
7 | CN1C(=O)c2cc([N+](=O)[O-])ccc2[C@H]2C(=O)c3cc4c(cc3[C@H]21)OCO4 | 0.0751 µM | 0.455 µM | 1.28 µM |  |  |  | 1.91 µM | > 45.8 µM | 0.0285 µM | 0.195 µM | 0.0506 µM | 14.9 µM | 0.68 µM | > 100 µM | 0.118 µM | 0.451 µM | 0.225 µM | > 61.2 µM | 0.321 µM | > 29.4 µM
8 | S=P1(c2ccccc2)Nc2ccc(Cl)cc2N1 (stereo not drawn) |  | > 100 µM |  | > 100 µM |  |  |  | > 100 µM |  | > 100 µM |  |  |  | > 100 µM |  |  |  | 45.5 µM |  | 
9 | N#CCc1ccc(/C(C#N)=C2/OC(=N)C(c3ccc(CC#N)cc3)C2=O)cc1 (stereo not drawn) |  | > 100 µM |  | > 100 µM |  |  |  | > 100 µM |  | > 100 µM |  |  |  | > 100 µM |  |  |  | > 100 µM |  | 
10 | CCCCCCCCCCCCCC(=O)OC(/C=C/C(C)C)C(O)C(O)C(OC)C(=O)NC1CCCCNC1=O (stereo not drawn) | 6.19 µM | 5.38 µM | 8.26 µM | 11.6 µM |  |  |  | 6.03 µM | 0.461 µM | 3.85 µM |  |  | 3.97 µM | 6.76 µM |  |  |  | 3.69 µM |  | 
11 | CN(C)CC(C)(C)C(/C=C/c1ccccc1)=N\Nc1ccccc1 |  | 14 µM |  | 3.48 µM |  |  |  | 31 µM |  | 17.8 µM |  |  |  | 17.9 µM |  |  |  | 11.3 µM |  | 
12 | Cn1cnc([N+](=O)[O-])c1Sc1nc2cccnc2s1 |  | 28.1 µM |  | 30.3 µM |  |  |  |  |  | > 100 µM |  |  |  | 25.2 µM |  |  |  | 22.7 µM |  | 
13 | CCOCC(=O)N[C@H]1CCc2cc(OC(=O)COCC)c(OC)c(OC)c2-c2ccc(SC)c(=O)cc21 |  | 0.0166 µM | 14.9 µM | > 100 µM |  |  | > 100 µM |  | 0.0395 µM |  | 0.0315 µM |  |  | > 100 µM |  | > 100 µM |  | 0.054 µM |  | 
14 | Cc1ccc(/C=C/C(=O)c2ccc(N)cc2)c(C)c1 |  |  | 3.13 µM | 11.9 µM | 1.68 µM | 3.4 µM | 14 µM | 28.4 µM | 14.7 µM | 33.8 µM | 10.8 µM | 22.7 µM | 2.09 µM | 5 µM | 8.29 µM | 37.2 µM | 2.43 µM | 6.07 µM | 2.05 µM | 4.64 µM
15 | COC(=O)c1oc2c(O)c(OC)c(Br)cc2c1C | 23.6 µM | 43.5 µM | 18.3 µM | 40 µM | 17.7 µM | 42.6 µM | 56.2 µM | > 100 µM | 64 µM | > 100 µM |  |  |  |  | 27.1 µM | > 100 µM | 22.5 µM | 48.3 µM |  | 
16 | COc1ccc(N(C)c2nc(Cl)nc3ccn(C)c23)cc1 | < 0.01 µM | > 100 µM | 91.3 µM | > 100 µM | < 0.01 µM | > 100 µM |  |  | < 0.01 µM | > 100 µM | < 0.01 µM | > 100 µM | < 0.01 µM | > 100 µM | < 0.01 µM | > 100 µM | < 0.01 µM | < 0.01 µM | > 100 µM | > 100 µM
17 | COc1ccc2cc3[n+](cc2c1OC)CCc1cc2c(cc1-3)OCO2 |  |  |  | > 100 µM | 3.71 µM and 2.59 µM and 5.39 µM | > 100 µM and 56.9 µM | 11.4 µM and 17.5 µM |  | 6.22 µM |  |  | > 100 µM |  | 93.7 µM and > 100 µM and 62 µM |  | > 100 µM and > 88.3 µM and 126 µM | 7.46 µM [middle of 5 runs] | 33.3 µM [middle of 5 runs] | 1.88 µM | 29.5 µM and 42.2 µM and > 68 µM
